Patent publication US20250282799A1, “SUBSTITUTED PYRIDO[4,3-d]PYRIMIDINES AS KRAS MODULATORS” (Alterome Therapeutics, Inc., priority 2023, published 2025)

Tested on: KRAS G12V dependent lung adenocarcinoma cell line, NCI-H441
Assay: Cellular pERK (Thr202/Tyr204) FRET/HTRF assay
Format: cell-based
Conditions: Homo sapiens, NCI-H441 cells (KRAS G12V)
Procedure, shortened: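 NCI-H441, overnight plating → cpd 1 hr, 37 °C/5% CO2; DMSO neg ctrl. Lyse (phosphatase inhibitors), add donor/acceptor Abs, RT incubation, HTRF read. IC50 by curve fit.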

Structure (SMILES) | IC50 (NCI-H441, pERK HTRF) [nM] | IC50 (pERK HTRF) [nM]
[2H]C([2H])([2H])Oc1c(F)c(F)c(F)c2cc(N)cc(-c3ncc4c(N5CCCO[C@H]6[C@H](F)[C@H]65)nc(OC([2H])([2H])[C@@]56CCCN5C[C@H](F)C6)nc4c3F)c12 [Example 77, 6,7,8-Trifluoro-4-(8-fluoro-4-((1R,7S,8R)-8-fluoro-2-oxa-6-azabicyclo[5.1.0]octan-6-yl)-2-(((2R,7aS)-2-fluorotetrahydro-1H-pyrrolizin-7a(5H)-yl)methoxy-d2)pyrido[4,3-d]pyrimidin-7-yl)-5-(methoxy-d3)naphthalen-2-amine] | < 50 | –
[2H]C([2H])(Oc1nc(N2CCCC[C@H]3[C@H](F)[C@H]32)c2cnc(-c3cccc4ccc(F)c(C#C)c34)c(F)c2n1)[C@@]12CCCN1C[C@H](F)C2 [Example 78, 7-(8-Ethynyl-7-fluoronaphthalen-1-yl)-8-fluoro-4-((1S,7R,8S)-8-fluoro-2-azabicyclo[5.1.0]octan-2-yl)-2-(((2R,7aS)-2-fluorotetrahydro-1H-pyrrolizin-7a(5H)-yl)methoxy-d2)pyrido[4,3-d]pyrimidine] | < 50 | –
[2H]C([2H])(Oc1nc(N2CCCC[C@H]3[C@H](F)[C@H]32)c2cnc(-c3cccc4cc(F)c(F)c(C#C)c34)c(F)c2n1)[C@@]12CCCN1C[C@H](F)C2 [Example 79, 7-(8-Ethynyl-6,7-difluoronaphthalen-1-yl)-8-fluoro-4-((1S,7R,8S)-8-fluoro-2-azabicyclo[5.1.0]octan-2-yl)-2-(((2R,7aS)-2-fluorotetrahydro-1H-pyrrolizin-7a(5H)-yl)methoxy-d2)pyrido[4,3-d]pyrimidine] | < 50 | –
[2H]C([2H])(F)Oc1c(F)ccc2cccc(-c3ncc4c(N5CCOC[C@H]6[C@H](F)[C@H]65)nc(OC([2H])([2H])[C@@]56CCCN5C[C@H](F)C6)nc4c3F)c12 [Example 80, (1S,7S,8S)-8-Fluoro-2-(8-fluoro-7-(7-fluoro-8-(fluoromethoxy-d2)naphthalen-1-yl)-2-(((2R,7aS)-2-fluorotetrahydro-1H-pyrrolizin-7a(5H)-yl)methoxy-d2)pyrido[4,3-d]pyrimidin-4-yl)-5-oxa-2-azabicyclo[5.1.0]octane] | < 50 | –
[2H]C([2H])([2H])Oc1c(C#N)ccc2cc(N)cc(-c3ncc4c(N5CCOC[C@H]6[C@H](F)[C@H]65)nc(OC([2H])([2H])[C@@]56CCCN5C[C@H](F)C6)nc4c3F)c12 [Example 81, 6-Amino-8-(8-fluoro-4-((1S,7S,8S)-8-fluoro-5-oxa-2-azabicyclo[5.1.0]octan-2-yl)-2-(((2R,7aS)-2-fluorotetrahydro-1H-pyrrolizin-7a(5H)-yl)methoxy-d2)pyrido[4,3-d]pyrimidin-7-yl)-1-(methoxy-d3)-2-naphthonitrile] | < 50 | –
[2H]C([2H])(Oc1nc(N2CCCC[C@H]3[C@H](F)[C@H]32)c2cnc(-c3cncc4cc(F)c(F)c(OC)c34)c(F)c2n1)[C@@]12CCCN1C[C@H](F)C2 [Example 83, 7-(6,7-Difluoro-5-methoxyisoquinolin-4-yl)-8-fluoro-4-((1S,7R,8S)-8-fluoro-2-azabicyclo[5.1.0]octan-2-yl)-2-(((2R,7aS)-2-fluorotetrahydro-1H-pyrrolizin-7a(5H)-yl)methoxy-d2)pyrido[4,3-d]pyrimidine] | 50 to 500 | –
[2H]C([2H])([2H])Oc1c(F)ccc2cncc(-c3ncc4c(N5CCOC[C@H]6[C@H](F)[C@H]65)nc(OC([2H])([2H])[C@@]56CCCN5C[C@H](F)C6)nc4c3F)c12 [Example 84, (1S,7S,8S)-8-Fluoro-2-(8-fluoro-7-(6-fluoro-5-(methoxy-d3)isoquinolin-4-yl)-2-(((2R,7aS)-2-fluorotetrahydro-1H-pyrrolizin-7a(5H)-yl)methoxy-d2)pyrido[4,3-d]pyrimidin-4-yl)-5-oxa-2-azabicyclo[5.1.0]octane] | – | < 50
